{
  "source": "patent US20260248783A1",
  "about": "(ASCLETIS BIOSCIENCE CO., LTD., priority 2021, published 2026)",
  "note": "Structures can show the parent of a compound that is named as a salt.",
  "data": [
    {"biological_target": "T1, PD-1/PD-L1 (Homo sapiens, UniProt Q9NZQ7)", "T1 construct": "Recombinant human PD-L1 protein (19-238) with a Histag at the C-terminus; purchased AcroBiosystems PD1-H5229 (PD-L1); PD1-H5257 (PD-1)", "T1 sequence (Q9NZQ7 19-238)": "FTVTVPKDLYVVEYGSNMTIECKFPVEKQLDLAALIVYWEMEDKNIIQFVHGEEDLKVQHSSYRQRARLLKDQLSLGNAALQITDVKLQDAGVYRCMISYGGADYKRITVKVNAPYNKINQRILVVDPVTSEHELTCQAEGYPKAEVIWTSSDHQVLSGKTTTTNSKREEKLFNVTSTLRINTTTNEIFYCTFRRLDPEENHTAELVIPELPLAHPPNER", "assay": "PD-1/PD-L1 Homogeneous Time-Resolved Fluorescence (HTRF) Binding Assay", "conditions": "PD-1/PD-L1 HTRF activity; 3 nM PD1, 10 nM PD-L1, 25° C.", "method": "Example 107. PD-1/PD-L1 Homogeneous Time-Resolved Fluorescence (HTRF) Binding Assay\nThe assays were conducted in a standard black 384-well polystyrene plate with a final volume of 20 μL. Inhibitors were first serially diluted in DMSO and then added to the plate wells before the addition of other reaction components. The final concentration of DMSO in the assay was 1%. The assays were carried out at 25° C. in the PBS buffer (pH 7.4) with 0.05% Tween-20 and 0.1% BSA. Recombinant human PD-L1 protein (19-238) with a Histag at the C-terminus was purchased from AcroBiosystems (PD1-H5229). Recombinant human PD-1 protein (25-167) with Fe tag at the C-terminus was also purchased from AcroBiosystems (PD1-H5257). PD-L1 and PD-1 proteins were diluted in the assay buffer and 10 μL was added to the plate well. Plates were centrifuged and proteins were preincubated with inhibitors for 40 minutes. The incubation was followed by the addition of 10 μL of HTRF detection buffer supplemented with Europium cryptate-labeled anti-human IgG (PerkinElmer-AD0212) specific for Fe and anti-His antibody conjugated to SureLight®—Allophycocyanin (APC, PerkinElmer-AD0059H). After centrifugation, the plate was incubated at 25° C. for 60 min. before reading on a PHERAstar FS plate reader (665 nm/620 nm ratio). Final concentrations in the assay were […], 10 nM PD-L1, 1 nM europium anti-human IgG and 20 nM anti-His-Allophycocyanin. IC50 determination was performed by fitting the curve of percent control activity versus the log of the inhibitor concentration.", "units": {"IC50": "nM"}, "values": [
      {"smiles": "O=C1CCC(Cn2cnn3c(F)c(-c4cccc(-c5cccc(-c6cc7c(=O)n(CC8CCC(=O)N8)cnn7c6F)c5Cl)c4Cl)cc3c2=O)N1", "note": "(stereo not drawn) [Compound 3, 6,6′-(2,2′-dichloro-[1,1′-biphenyl]-3,3′-diyl)bis(7-fluoro-3-((5-oxopyrrolidin-2-yl)methyl)pyrrolo[2,1-f][1,2,4]triazin-4(3H)-one)]", "IC50": "< 10"},
      {"smiles": "Cc1nn2cc(-c3cccc(-c4cccc(-c5cc6c(=O)n(CCN[C@@H](CO)C(=O)O)c(C)nn6c5)c4Cl)c3Cl)cc2c(=O)n1CCN[C@@H](CO)C(=O)O", "note": "[Compound 64, (2S,2'S)-2,2′-((((2,2′-dichloro-[1,1′-biphenyl]-3,3′-diyl)bis(2-methyl-4-oxopyrrolo[2,1-f][1,2,4]triazine-6,3(4H)-diyl))bis(ethane-2,1-diyl))bis(azanediyl))bis(3-hydroxypropanoic acid)]", "IC50": "10 to 100"},
      {"smiles": "Cc1cn2nc(-c3cccc(-c4cccc(-c5cc6c(=O)n(C[C@@H]7C[C@@H](O)CN7)c(C)cn6n5)c4Cl)c3Cl)cc2c(=O)n1C[C@@H]1C[C@@H](O)CN1", "note": "[Compound 92, 2,2′-(2,2′-dichloro-[1,1′-biphenyl]-3,3′-diyl)bis(5-(((2S,4R)-4-hydroxypyrrolidin-2-yl)methyl)-6-methylpyrazolo[1,5-a]pyrazin-4(5H)-one)]", "IC50": "< 10"},
      {"smiles": "Cc1cn2nc(-c3cccc(-c4cccc(-c5cc6c(=O)n(CCN[C@@H](CN(C)C)C(=O)O)c(C)cn6n5)c4Cl)c3Cl)cc2c(=O)n1CCN[C@@H](CN(C)C)C(=O)O", "note": "[Compound 69, (2S,2'S)-2,2′-((((2,2′-dichloro-[1,1′-biphenyl]-3,3′-diyl)bis(6-methyl-4-oxopyrazolo[1,5-a]pyrazine-2,5(4H)-diyl))bis(ethane-2,1-diyl))bis(azanediyl))bis(3-(dimethylamino)propanoic acid)]", "IC50": "≥ 100"},
      {"smiles": "Cc1cn2cc(-c3cccc(-c4cccc(-c5cc6c(=O)n(CCN[C@@H](CCO)C(=O)O)c(C)cn6c5)c4Cl)c3Cl)cc2c(=O)n1CCN[C@@H](CCO)C(=O)O", "note": "[Compound 58, (2S,2'S)-2,2′-((((2,2′-dichloro-[1,1′-biphenyl]-3,3′-diyl)bis(3-methyl-1-oxopyrrolo[1,2-a]pyrazine-7,2(1H)-diyl))bis(ethane-2,1-diyl))bis(azanediyl))bis(4-hydroxybutanoic acid)]", "IC50": "10 to 100"},
      {"smiles": "Cn1c(-c2cccc(-c3cccc(-c4cc5ncn(C[C@@H]6CCC(=O)N6)c(=O)c5n4C)c3Cl)c2Cl)cc2ncn(C[C@@H]3CCC(=O)N3)c(=O)c21", "note": "[Compound 4, 6,6′-(2,2′-dichloro-[1,1′-biphenyl]-3,3′-diyl)bis(5-methyl-3-(((S)-5-oxopyrrolidin-2-yl)methyl)-3,5-dihydro-4H-pyrrolo[3,2-d]pyrimidin-4-one)]", "IC50": "≥ 100"},
      {"smiles": "CN1CCN(CCn2cnn3cc(-c4cccc(-c5cccc(-c6cc7c(=O)n(CCN8CCN(C)CC8)cnn7c6)c5Cl)c4Cl)cc3c2=O)CC1", "note": "[Compound 26, 6,6′-(2,2′-dichloro-[1,1′-biphenyl]-3,3′-diyl)bis(3-(2-(4-methylpiperazin-1-yl)ethyl)pyrrolo[2,1-f][1,2,4]triazin-4(3H)-one)]", "IC50": "≥ 100"},
      {"smiles": "Cc1cn2cc(-c3cccc(-c4cccc(-c5cc6c(=O)n(CCN7C[C@@H](O)C[C@H]7C(=O)O)c(C)cn6c5)c4Cl)c3Cl)cc2c(=O)n1CCN1C[C@@H](O)C[C@H]1C(=O)O", "note": "[Compound 50, (2S,2'S,4S,4'S)-1,1′-(((2,2′-dichloro-[1,1′-biphenyl]-3,3′-diyl)bis(3-methyl-1-oxopyrrolo[1,2-a]pyrazine-7,2(1H)-diyl))bis(ethane-2,1-diyl))bis(4-hydroxypyrrolidine-2-carboxylic acid)]", "IC50": "10 to 100"},
      {"smiles": "O=C1CCC(Cn2cc(F)n3cc(-c4cccc(-c5cccc(-c6cc7c(=O)n(CC8CCC(=O)N8)cc(F)n7c6)c5Cl)c4Cl)cc3c2=O)N1", "note": "(stereo not drawn) [Compound 16, 7,7′-(2,2′-dichloro-[1,1′-biphenyl]-3,3′-diyl)bis(4-fluoro-2-((5-oxopyrrolidin-2-yl)methyl)pyrrolo[1,2-a]pyrazin-1(2H)-one)]", "IC50": "10 to 100"},
      {"smiles": "Cc1cn2nc(-c3cccc(-c4cccc(-c5cc6c(=O)n(CCNC7(C(=O)O)CCC(O)CC7)c(C)cn6n5)c4Cl)c3Cl)cc2c(=O)n1CCNC1(C(=O)O)CCC(O)CC1", "note": "(stereo not drawn) [Compound 88, 1,1′-((((2,2′-dichloro-[1,1′-biphenyl]-3,3′-diyl)bis(6-methyl-4-oxopyrazolo[1,5-a]pyrazine-2,5(4H)-diyl))bis(ethane-2,1-diyl))bis(azanediyl))bis(4-hydroxycyclohexane-1-carboxylic acid)]", "IC50": "10 to 100"},
      {"smiles": "Cn1c(-c2cccc(-c3cccc(-c4nc5c(=O)n(C[C@@H]6CCC(=O)N6)ccc5n4C)c3Cl)c2Cl)nc2c(=O)n(C[C@@H]3CCC(=O)N3)ccc21", "note": "[Compound 6, 2,2′-(2,2′-dichloro-[1,1′-biphenyl]-3,3′-diyl)bis(1-methyl-5-(((S)-5-oxopyrrolidin-2-yl)methyl)-1,5-dihydro-4H-imidazo[4,5-c]pyridin-4-one)]", "IC50": "≥ 100"},
      {"smiles": "Cc1cn2nc(-c3cccc(-c4cccc(-c5cc6c(=O)n(C[C@H]7CCCN7)c(C)cn6n5)c4Cl)c3Cl)cc2c(=O)n1C[C@H]1CCCN1", "note": "[Compound 37, 2,2′-(2,2′-dichloro-[1,1′-biphenyl]-3,3′-diyl)bis(6-methyl-5-(((R)-pyrrolidin-2-yl)methyl)pyrazolo[1,5-a]pyrazin-4(5H)-one) dihydrochloride]", "IC50": "10 to 100"},
      {"smiles": "O=C1CC[C@@H](Cn2ncn3cc(-c4cccc(-c5cccc(-c6cc7c(=O)n(C[C@@H]8CCC(=O)N8)ncn7c6)c5Cl)c4Cl)cc3c2=O)N1", "note": "[Compound 11, 7,7′-(2,2′-dichloro-[1,1′-biphenyl]-3,3′-diyl)bis(2-(((S)-5-oxopyrrolidin-2-yl)methyl)pyrrolo[1,2-d][1,2,4]triazin-1(2H)-one)]", "IC50": "≥ 100"},
      {"smiles": "O=C1CC[C@@H](Cn2c(C3CC3)cn3nc(-c4cccc(-c5cccc(-c6cc7c(=O)n(C[C@@H]8CCC(=O)N8)c(C8CC8)cn7n6)c5Cl)c4Cl)cc3c2=O)N1", "note": "[Compound 32, 2,2′-(2,2′-dichloro-[1,1′-biphenyl]-3,3′-diyl)bis(6-cyclopropyl-5-(((S)-5-oxopyrrolidin-2-yl)methyl)pyrazolo[1,5-a]pyrazin-4(5H)-one)]", "IC50": "10 to 100"},
      {"smiles": "O=C(O)CCn1cnn2cc(-c3cccc(-c4cccc(-c5cc6c(=O)n(CCC(=O)O)cnn6c5)c4Cl)c3Cl)cc2c1=O", "note": "[Compound 24, 3,3′-((2,2′-dichloro-[1,1′-biphenyl]-3,3′-diyl)bis(4-oxopyrrolo[2,1-f][1,2,4]triazine-6,3(4H)-diyl))dipropionic acid]", "IC50": "≥ 100"},
      {"smiles": "Cn1c(CNCCO)cn2nc(-c3cccc(-c4cccc(-c5cc6c(=O)n(C)c(CNCCO)cn6n5)c4Cl)c3Cl)cc2c1=O", "note": "[Compound 42, 2,2′-(2,2′-dichloro-[1,1′-biphenyl]-3,3′-diyl)bis(6-(((2-hydroxyethyl)amino)methyl)-5-methylpyrazolo[1,5-a]pyrazin-4(5H)-one)]", "IC50": "< 10"},
      {"smiles": "Cc1cn2nc(-c3cccc(-c4cccc(-c5cc6c(=O)n(CCN[C@@H](CCO)C(=O)O)c(C)cn6n5)c4Cl)c3Cl)cc2c(=O)n1CCN[C@@H](CCO)C(=O)O", "note": "[Compound 62, (2S,2'S)-2,2′-((((2,2′-dichloro-[1,1′-biphenyl]-3,3′-diyl)bis(6-methyl-4-oxopyrazolo[1,5-a]pyrazine-2,5(4H)-diyl))bis(ethane-2,1-diyl))bis(azanediyl))bis(4-hydroxybutanoic acid)]", "IC50": "10 to 100"},
      {"smiles": "CC(=O)NCCNCc1cn2cc(-c3cccc(-c4cccc(-c5cc6c(=O)n(C[C@@H]7CCC(=O)N7)c(CNCCNC(C)=O)cn6c5)c4Cl)c3Cl)cc2c(=O)n1C[C@@H]1CCC(=O)N1", "note": "[Compound 73, N,N′-(((((2,2′-dichloro-[1,1′-biphenyl]-3,3′-diyl)bis(1-oxo-2-(((S)-5-oxopyrrolidin-2-yl)methyl)-1,2-dihydropyrrolo[1,2-a]pyrazine-7,3-diyl))bis(methylene))bis(azanediyl))bis(ethane-2,1-diyl))diacetamide]", "IC50": "10 to 100"},
      {"smiles": "O=C1CC[C@@H](Cn2ccn3nc(-c4cccc(-c5cccc(-c6nc7c(=O)n(C[C@@H]8CCC(=O)N8)ccn7n6)c5Cl)c4Cl)nc3c2=O)N1", "note": "[Compound 15, 2,2′-(2,2′-dichloro-[1,1′-biphenyl]-3,3′-diyl)bis(7-(((S)-5-oxopyrrolidin-2-yl)methyl)-[1,24]triazolo[1,5-a]pyrazin-8(7H)-one)]", "IC50": "< 10"},
      {"smiles": "O=c1c2cc(-c3cccc(-c4cccc(-c5cc6c(=O)n(CCn7cncn7)cnn6c5)c4Cl)c3Cl)cn2ncn1CCn1cncn1", "note": "[Compound 22, 6,6′-(2,2′-dichloro-[1,1′-biphenyl]-3,3′-diyl)bis(3-(2-(1H-1,2,4-triazol-1-yl)ethyl)pyrrolo[2,1-f][1,2,4]triazin-4(3H)-one)]", "IC50": "10 to 100"},
      {"smiles": "Cc1cn2cc(-c3cccc(-c4cccc(-c5cc6c(=O)n(CCNCC7CCCN7)c(C)cn6c5)c4Cl)c3Cl)cc2c(=O)n1CCNCC1CCCN1", "note": "(stereo not drawn) [Compound 55, 7,7′-(2,2′-dichloro-[1,1′-biphenyl]-3,3′-diyl)bis(3-methyl-2-(2-((pyrrolidin-2-ylmethyl)amino)ethyl)pyrrolo[1,2-a]pyrazin-1(2H)-one)]", "IC50": "≥ 100"}
    ]}
  ]
}
